From patent publication US11478440B2, “Combination of Elafibranor or derivatives thereof with an anti-NASH, anti-fibrotic or anti-cholestatic agent” (GENFIT, priority 2017, dated 2022)

What was measured:
NASH = conditions: over 800 patients and healthy volunteers; cited from earlier work
[1] = tested on: mice with NASH (CDFF-fed mice); assay: Mouse fibrosing-NASH model (CDFF diet, 8 weeks); assay type: in vivo, C57Bl/6J mice; conditions: elafibranor 3 mg/kg/day
Method: The preventive effects of the combinations of elafibranor with selonsertib, GKT-831 or GS-0976 were assessed in mice fed a choline-deficient, […] diet (CDAA) supplemented with 2% cholesterol, 30% milk fat diet and high fructose corn syrup 55 (55% fructose/45% glucose for a final concentration of 42 g/L) in drinking water (Mells et al J Nutr Biochem 2015) (CDFF diet). 5-6 weeks old male C57Bl/6J mice were fed a control (CSAA) diet (n=4), CDFF (n=12), or CDFF supplemented with elafibranor (1 or 3 mg/kg/day), selonsertib (30 mg/kg/day), GKT-831 ([…]) alone or in combination (n=8 per group) for 8 weeks.
The body weight, the food and water intake were monitored twice per week. On the last day of treatment, plasma samples were obtained from retro-orbital blood sampling and mice were sacrificed after a 6 h-fasting period. The liver was rapidly excised for biochemical and histological analyses. All animal procedures were performed according to standard protocols and in accordance with the standard recommendations for the proper care and use of laboratory animals.
The liver slices were fixed in a formalin 4% solution. Then, the liver pieces were washed 30 minutes in PBS, and dehydrated in ethanol solutions (successive baths at 70, 80, 95 and 100% ethanol). The liver pieces were incubated in three different baths of Xylene (Honeywell cat #534056), followed by two baths in liquid paraffin (59° C.). Liver pieces were then put into racks that were gently filled with HISTOWAX to completely cover the tissue.
Liver sections were deparaffinized, rehydrated and incubated for 3 minutes in Mayer's Hematoxylin (Microm, cat #F/C0303). Then, the liver sections were rinsed in water and incubated 1 minute in a Eosin Y 0.5% alcoholic (VWR, cat #1.02439.0500) and Erythrosin 0.5% solution (VWR, cat #1.15936.0010), and rinsed in with ethanol. Sections were then incubated for 2 minutes in Safranin, and were eventually dehydrated and mounted using the CV Mount medium (Leica, cat #046430011).
Liver sections were deparaffinized, rehydrated and incubated for 15 minutes in a solution of Fast Green FCF 0.1% (Sigma-Aldrich, cat #F7258) before rinsing in a bath of 0.5% acetic acid (Panreac, cat #131008.1611). Then, the liver sections were rinsed in water and incubated 30 minutes in a solution of 0.1% sirius red (Direct Red 80, Fluka cat #43665) in saturated aqueous picric acid (Sigma-Aldrich cat #P6744). Sections were then dehydrated, and mounted using the CV Mount medium (Leica, cat #14046430011).
A technician blinded to the source of each liver specimen performed histological examinations. Virtual slides were generated using the Pannoramic 250 scanner from 3D Histech. For each animal, a score summarizing the main histological lesions of NASH was attributed according to the NASH Clinical Research Network (Kleiner 2005, Brunt 1999). Briefly, steatosis, lobular inflammation and hepatocyte ballooning were scored. The NAFLD Activity Score (NAS) was established for each individual as the unweighted sum of the steatosis (0-3), lobular inflammation (0-3) and the ballooning (0-2) injury grading.
Using Quant Center software (3D Histech, including Pattern Quant and Histo Quant modules), collagen-stained areas were quantified. Briefly, Pattern Quant was used to detect the tissue and measure its surface. Then, Histo Quant was used to detect the stained collagen content and measure its surface, based on a color threshold method. The fibrosis area was then expressed as the percentage of the collagen surface to the whole tissue per animal.
The hepatic collagen content was determined using the appropriate QuickZyme kit (Total collagen assay, cat #QZB-totcol2). The assay is based on the detection of hydroxyproline, which is a non-proteinogenic amino acid mainly found in the triple helix of collagen. […]

[2] = tested on: LPS-activated macrophages (THP-1); assay: TNFα secretion (HTRF) in LPS-activated THP-1 macrophages; assay type: cell-based, human; conditions: Elafibranor 1 μM alone; LPS 100 ng/ml 6 h
Method: THP-1 monocytes (ECACC #88081201) were seeded at a density of 25550 cells per well in 384-well plate in RPMI1640 (Gibco, 21875) supplemented with 10% SVF and differentiated into macrophages using PMA (Phorbol 12-myristate 13-acetate, Sigma, P8139) at the final concentration of 100 ng/ml for 24 hours.
For these experiments, a checkerboard matrix was generated. ELA and component stocks were serially diluted in DMSO in 6-points series in a column (ELA) and a 10-points series in a raw (component) of a 96-well plate for other compounds. Subsequently, the 6×10 combination matrix was generated by 1:1 mixing of all single agent concentrations.
After 24 hrs with PMA, medium was removed, and replaced by serum free RPMI. […]
Human TNFα is quantified in the supernatants using the Homogeneous Time Resolved Fluorescence (HTRF) technology (Cisbio 62[…]), based on FRET technology. FRET (Fluorescence Resonance Energy Transfer) is based on the transfer of energy between two fluorophores, a donor and an acceptor, when in close proximity. Molecular interactions between biomolecules can be assessed by coupling each partner with a fluorescent label and by detecting the level of energy transfer (665 nm). […]

Substance: 1-[4-methylthiophenyl]-3-[3,5-dimethyl-4-carboxydimethylmethyloxyphenyl]prop-2-en-1-one [Elafibranor]
- clinical properties for NASH (liver markers, insulin sensitivity, plasma lipids, anti-inflammatory) (NASH): has demonstrated beneficial properties for NASH
- NASH histology (steatosis, hepatic lobular inflammation, NAFLD activity score) [1]: improves NASH histology
- hepatic expression of genes related to inflammation, tissue remodeling and fibrogenesis ([1]; alone or with selonsertib 30 mg/kg/day): decreases
- hepatic fibrosis (histology, hepatic collagen content, PIIINP and TIMP-1) ([1]; selonsertib 30 mg/kg/day, alone or combined): marked reduction of hepatic fibrosis
- inhibition of TNFα secretion [2]: 21%
